# How the values were obtained:
# Type in all cases: cell-based, human
# CAP cell line = assay: Viable cell density and viability of induced AAV producer cells; details: for viable cell density and viability: induced AAV producer cells, versus untreated cells, Camptothecin 10 μM
# Experimental: During routine cultivation, cells were diluted with fresh medium to a viable cell density of 0.5-1×10^6 cells/ml every 72 to 96 h. Viable cell density and viability were determined by trypan blue exclusion using a Vi-Cell Blu cell counter (Beckman Coulter).
# • Various stable and transient AAV producer cells were induced with doxycycline and treated with different concentrations of the antiapoptotic pan-caspase inhibitor Z-VAD-fmk. • Cell viability was evaluated using the NucleoCounter NC-3000.
# CAP cells [1] = assay: Sub-G1 DNA fragmentation assay (Chemometec, NucleoCounter NC-3000); details: during vector production; Camptothecin 10 μM over night on parental CAP cells
# Excerpt: A DNA fragmentation assay by Chemometec was applied using the NucleoCounter® NC-3000™ according to note No. 3003. Rev. 1.4.
# In brief, cells were permeabilized with Ethanol, which allows low molecular weight DNA fragments (e.g., apoptotic DNA) to leak out, while large fragments and undamaged chromosomes are retained inside the nucleus. Total DNA content was stained by DAPI and detected using the NucleoCounter® NC-3000™. Here, cells typically fall into one of three clusters when plotted by signal intensity. The G1 peak represents the majority of cells with 2n DNA content. A second, smaller peak represents cells in G2 phase of the cell cycle, containing 4n. […]
# (§1) • Z-VAD-fmk inhibits caspases 3 and 8 which are upstream of the apoptotic nucleases DFF40 and ENDOG, respectively. • Z-VAD-fmk treatment should therefore reduce chromosomal fragmentation and decrease amount of packageably sized AAV cargo. • Transiently transfected CAP cells and HEK293 cells or full producers were cultured to produce AAV in the presence of absence of Z-VAD-fmk. • Resulting AAV particles were harvested from cell suspension on days 1, 2, 3, and 4 post induction. • Encapsidated host cell DNA was measured using a dedicated qPCR assay amplifying ALU repeats. • DNA fragmentation was determined using the DNA fragmentation assay by Chemometec.
# CAP cells [2] = assay: Encapsidated host cell DNA in AAV particles, ALU qPCR, CAP-derived producer cells; details: for encapsidated hcDNA: 30 μM and 60 μM, compared to vehicle treated controls (DMSO)
# Experimental: (§2) At different time points post transfection, cell suspension was harvested, and cells were lysed by addition of Triton-X 100 (Sigma). After centrifugation, supernatants were diluted and incubated with TurboDNase (ThermoFisher Scientific), in order to remove non-encapsidated DNA contaminants. After inactivation of TurboDNAse, proteinase K was added to digest the viral capsid and subsequently amplify viral genomic DNA or hcDNA via ddPCR or qPCR.
# (§3) The following primer/dual-labelled probe combinations (ordered at MWG, Eurofins and IDT, respectively, Table 1) directed against • a) the SV40 PolyA (quantification of viral titer) or • b) Alu sequences (quantification of hcDNA) • were used:
# (§4) As standard for the viral genome, linearized transgene plasmid with a defined copy number was used. As standard for the hcDNA assay previously isolated CAP and HEK293 DNA (purified with DNeasy® Blood & Tissue Kit) was used.
# AAV samples were treated with Turbo DNAse (Thermo Fischer Scientific) to digest the non-encapsidated DNA before the capsids were digested using Proteinase K. Proteinase K was inactivated by a heating step at 95° C. for 15 min. The samples were measured either by qPCR or ddPCR as follows:
# The qPCR reaction contained the following components: 2×Brilliant Multiplex qPCR Master Mix (Agilent), nuclease-free H2O (Thermo Fisher Scientific), primer/probe mix and sample/standard. qPCR was run on an LightCycler 480 according to the manufacturer's instructions.
# as §1
# HEK293 cells [3] = assay: Encapsidated host cell DNA in AAV particles, ALU qPCR, HEK293 cells; details: up to 40 μg/ml, compared to untreated controls, transient transfection
# Experimental: as §2, §3, §4
# AAV samples were treated with Turbo DNAse (Thermo Fischer Scientific) to digest the non-encapsidated DNA before the capsids were digested using Proteinase K. Proteinase K was inactivated by a heating step at 95° C. for 15 min. The samples were measured either by qPCR or ddPCR as follows: […]
# stable producer cells = assay: Capsid levels by ELISA; details: in the presence of Z-VAD-fmk
# Experimental: Inhibition of apoptotic DNA fragmentation reduces amount and packaging of hcDNA. • a) First page: sensitivity test for Sub-G1 DNA-fragmentation assay (Chemometec) using Camptothecin treatment (10 μM) on parental CAP cells over night. M1 population as % of global DNA stain. Second page: merged curves for apoptotic DNA fragmentation determined by same assay after 0 h (black curve), 18 h (dark grey), and 44 h (light grey), with Z-VAD-fmk (right) and in control samples (left, induction only) • b) First page: Relative share of encapsidated hcDNA [%] in transient and stable AAV8 production at 3 days post induction (transient transfection) and 5 days post induction (stable clone). […] Encapsidated hcDNA was measured in relation to the respective untreated controls, each set at 100%. Second page: fold difference of hcDNA concentration over time [hours] in an untreated AAV production using stable producer clone 1 (light grey line) normalized to 10 μg/ml of Z-VAD-fmk (dark grey line) determined by ALU qPCR. • c) First page: Relative Capsid levels determined by ELISA in stable producer clone 1 and transiently transfected HEK293 suspension cells at different Z-VAD-fmk concentrations and compared with Camptothecin. […] Second page: corresponding host cell DNA per capsid as determined by ALU qPCR normalized to untreated controls. […]
# HEK293 cells [4] = assay: Endpoint PCR for detection of encapsidated hcDNA; details: transiently transfected HEK293 wt cells, cargo 1 or cargo 3
# Experimental: Encapsidated hcDNA was prepared as described. PCR setup involved 3 μl sample as template for an endpoint PCR with 40 cylces using Q5 High-Fidelity DNA polymerase (NEB) according to the manufacturer's instructions. PCR samples were analyzed on a 2% agarose gel.
Compound,viable cell density and viability (CAP cell line),amount of low molecular weight DNA (short DNA fragments) (CAP cells [1]),"encapsidated hcDNA (CAP cells [2]; stable inducible AAV producer cells, day 3 post induction)","encapsidated hcDNA (CAP cells [2]; stable inducible AAV producer cells, day 3 post induction, listed as SB 203580)","reduction of encapsidated hcDNA (CAP cells [2]; 60 μM, stable inducible AAV producer cells, compared to vehicle treated controls, day 3 post induction)","increase in viability (CAP cell line; 80 h of treatment with 10 μg/ml, compared to untreated cells)","compensation of Camptothecin-reduced viability and VCD (CAP cell line; co-culturing, 10 μM Camptothecin+20 μM Z-VAD-fmk)","reduction in encapsidated hcDNA normalized to capsid levels (CAP cells [2]; stable producer cells, compared to controls)","packaging of host cell DNA (CAP cells [2]; up to 40 μg/ml, compared to untreated controls, fully transient approach and full producers)",packaging of host cell DNA (HEK293 cells [3]),capsid levels (ELISA) (stable producer cells),encapsidated hcDNA (genomic DNA sequence from HEK293 cells) (HEK293 cells [4])
CC[C@@]1(O)C(=O)OCc2c1cc1n(c2=O)Cc2cc3ccccc3nc2-1 [Camptothecin],reduced viability and VCD,increase in short DNA fragments,–,–,–,–,–,–,–,–,–,–
"C[S+]([O-])c1ccc(-c2nc(-c3ccc(F)cc3)c(-c3ccncc3)[nH]2)cc1 (centres unmarked) [Adezmapimod, 4-(4-fluorophenyl)-2-(4-methylsulfinylphenyl)-5-(4-pyridyl)-1H-imidazole]",–,–,reduced hcDNA encapsidation,reduces the encapsidated hcDNA,more than 75%,–,–,–,–,–,–,–
Z-Val-Ala-Asp fluoromethyl ketone [Z-VAD-fmk],increased viable cell density and viability,reduced the amount of low molecular weight DNA,–,–,–,~10 percentage points,could be compensated,~10 fold,dramatically decreased packaging of host cell DNA,dramatically decreased packaging of host cell DNA,slightly increased,undetectable
